Experimental data published in patent US5475032A, “2,4-disulfonyl phenyl butyl nitrone, its salts, and their use as pharmaceuticals” (Oklahoma Medical Research Foundation, priority 1995, dated 1995).
Values belong to the compound of their own block, whether it stands above or below them.

Key:
[1] = tested on: neuron loss following brain ischemia and reperfusion injury; experiment: neuronal density after 5 min bilateral carotid occlusion, compound i.p. 30 min before ischemia (Example 3); type: in vivo, gerbil; conditions: for Neuronal nuclei/100 micron field: 30 min before ischemia
Protocol: In the experiments a test compound was administered to groups of six gerbils i.p. as a single dose 30 min before 5 min bilateral carotid occlusion. The density of neuronal nuclei in a 100 micron was measured. Two controls were present--controls which received no test compound and controls which received no test compound and no brain ischemia.

[2] = tested on: neuron loss following brain ischemia and reperfusion injury; experiment: neuronal density, post-ischemia treatment, compound i.p. 30 min after reperfusion following 5 min ischemia (Example 4); type: in vivo, gerbil
[3] = tested on: acute lethal effects of adriamycin; experiment: adriamycin acute lethality and its prevention by pretreatment, DBA/2J mice (Example 13)
Protocol: (§1) All injections were intraperitoneal. The acute lethality of adriamycin ranged from 10 to 30 mg/kg.

[4] = tested on: acute lethal effects of adriamycin; experiment: adriamycin acute lethality and its prevention by pretreatment, C57BL/6J mice (Example 13); type: in vivo; conditions: up to 300 mg/kg i.p., without adriamycin
Source text: (§2) All injections were intraperitoneal.

[5] = solubility in water; type: physicochemical; conditions: free acid
[6] = tested on: Sprague Dawley rats; experiment: acute toxicity in male Sprague Dawley rats (Example 14); type: in vivo, rat; conditions: 1000 mg/kg i.p., after 3 days
Protocol: The compounds were administered at 1000 mg/kg, i.p., to groups of 6 rats. After 3 days lethality was assessed.

[7] = tested on: creatine kinase (CK); experiment: protection of creatine kinase against βAP 25-35 (Example 11); type: biochemical, gerbil; conditions: co-incubation with 0.4 mg/ml BAP 25-35
Protocol: (§3) Cytosolic fractions from gerbil neocortex were prepared and enzyme activities determined. Samples were incubated in the presence of different concentrations of the peptide for 10 min prior to assay. Solid symbols represent the effects of the naturally occurring 25-35 fragment. […] Each point is the mean (+/- s.e.) of 5 observations. βAP derived and other cellular sources of free radicals are an important determinant of the initiation and progression of AD.
(§4) Each point is the mean (+/- s.e.) of 3 observations.

[8] = tested on: infarct volume following middle cerebral occlusion; experiment: infarct volume after middle cerebral occlusion (Example 7); type: in vivo, C57BL/6J mice; conditions: from 60 min after occlusion for 24 hours
Protocol: The ability of the compound of the invention to reduce infarct volume following an ischemic event was determined.

[9] = tested on: acute lethal effects of adriamycin; experiment: comparative tests: nitrone pretreatment combined with adriamycin (Example 13); type: in vivo, mouse; conditions: doses of Compound I up to 300 mg/kg with adriamycin
Source text: as §2

[10] = tested on: neuronal loss following ischemia; experiment: protection from neuronal loss, i.v. 60 min after reperfusion onset following 5 min ischemia (Example 5); type: in vivo, gerbil; conditions: for protection for neuronal loss (neuronal density): 60 min after reperfusion onset
[11] = body temperature depression (Example 10); type: in vivo; conditions: levels as high as 1000 mg/kg, mice and gerbils
Source text: Another undesirable systemic effect which has been observed in vivo with nitrone radical traps is a depression in body temperature. This toxicity can have serious health consequences and also can complicate diagnosis of other conditions.

[12] = tested on: temporal/spatial short term memory following ischemia; experiment: 8-arm radial maze test 24 hours after ischemia (Example 6); type: in vivo, gerbil
Protocol: Brain injury can manifest itself as behavioral changes. In this experiment, young adult (3-4 months of age) gerbils were tested to determine their ability to perform an 8-arm maze test 24 hours following an ischemic event as described in Example 1. As compared to nonischemic animals, when untreated they committed many more errors. PBN and compound I were administered to some of the test animals.

[13] = doses demonstrated to be possible; conditions: up to and higher
[14] = tested on: glutamine synthetase (GS); experiment: protection of glutamine synthetase against βAP 25-35 (Example 11); type: biochemical, gerbil; conditions: co-incubation with 0.4 mg/ml BAP 25-35
Protocol: as §3, §4

[15] = tested on: lethality from 10 min ischemia; experiment: lethality protection in aged gerbils from 10 min ischemia (Example 8); type: in vivo, gerbil; conditions: 30 min before ischemia
[16] = tested on: infarct volume following middle cerebral artery occlusion; experiment: rat focal ischemia model, permanent middle cerebral artery occlusion (Example 12); type: in vivo, Sprague Dawley rats; conditions: both studies: 100 mg/kg i.p. then 4.2 mg/kg/hr i.v., or 10 mg/kg i.p. then 0.42 mg/kg/hr i.v., up to 24 h; 3 days post stroke
Source text: A pair of studies were done to determine the efficacy of Compound I in a rat focal ischemia model. In this model, Sprague Dawley rats (200-300 g) underwent a permanent middle cerebral artery occlusion (MCAO) to induce a focal stroke.
The rats were sacrificed 3 days post stroke, the tissue was processed histologically using triphenyltetrazolium staining techniques, and the infarct volume, the area of total cell necrosis, was quantitated using image analysis.

[17] = adriamycin acute lethality and its prevention by pretreatment, DBA/2J mice (Example 13); conditions: mouse, in vivo, ip
Protocol: as §1

[18] = adriamycin acute lethality and its prevention by pretreatment, C57BL/6J mice (Example 13); type: in vivo; conditions: mouse, in vivo, ip
Source text: as §2

[19] = tested on: neuronal cultures; conditions: Dichlorofluorescein and increased intracellular free calcium Fura-2; cited from earlier work
[20] = tested on: embryonic hippocampal neuronal and neuronal/glial cultures; conditions: extended period of co-incubation; cited from earlier work
[21] = tested on: rat brains; conditions: infused into rat brains; cited from earlier work
[22] = tested on: neurotoxicity; conditions: cited from earlier work
[23] = tested on: creatine kinase (CK); experiment: inactivation of creatine kinase by βAP fragments in cytosolic fractions of neocortex (Example 11); type: biochemical, gerbil; conditions: 10 min incubation prior to assay
Protocol: as §3

[24] = tested on: glutamine synthetase (GS); experiment: inactivation of glutamine synthetase by βAP fragments in cytosolic fractions of neocortex (Example 11); type: biochemical, gerbil; conditions: 10 min incubation prior to assay
Protocol: as §3

Compound: CC(C)(C)[N+]([O-])=Cc1ccccc1S(=O)(=O)O [Compound 2-sulfo, N-tert-butyl-α-(2-sulfophenyl) nitrone]
- Neuronal nuclei/100 micron field ([1]; 3.2 mg/kg i.p.): 0.73 Neuronal nuclei/100 micron field
- Neuronal nuclei/100 micron field ([1]; 10 mg/kg i.p.): 0.68 Neuronal nuclei/100 micron field
- Neuronal nuclei/100 micron field ([1]; 32 mg/kg i.p.): 0.73 Neuronal nuclei/100 micron field
- Neuronal nuclei/100 micron field ([1]; 50 mg/kg i.p.): 1.01 Neuronal nuclei/100 micron field
- Neuronal nuclei/100 micron field ([1]; 100 mg/kg i.p.): 0.93 Neuronal nuclei/100 micron field
- Neuronal nuclei/100 micron field ([1]; 320 mg/kg i.p.): 1.11 Neuronal nuclei/100 micron field
- Neuronal nuclei/100 micron field ([1]; 1000 mg/kg i.p.): 0.98 Neuronal nuclei/100 micron field
- Neuronal nuclei/100 micron field ([2]; 50 mg/kg i.p.): 0.68 Neuronal nuclei/100 micron field
- Neuronal nuclei/100 micron field ([2]; 100 mg/kg i.p.): 0.78 Neuronal nuclei/100 micron field
- Neuronal nuclei/100 micron field ([2]; 320 mg/kg i.p.): 0.81 Neuronal nuclei/100 micron field

Compound: CC(C)(C)[N+]([O-])=Cc1cccc(S(=O)(=O)O)c1 [Compound 3-sulfo]
- Neuronal nuclei/100 micron field ([1]; 3.2 mg/kg i.p.): 0.35 Neuronal nuclei/100 micron field
- Neuronal nuclei/100 micron field ([1]; 10 mg/kg i.p.): 0.81 Neuronal nuclei/100 micron field
- Neuronal nuclei/100 micron field ([1]; 32 mg/kg i.p.): 1.63 Neuronal nuclei/100 micron field
- Neuronal nuclei/100 micron field ([1]; 50 mg/kg i.p.): 1.63 Neuronal nuclei/100 micron field
- Neuronal nuclei/100 micron field ([1]; 100 mg/kg i.p.): 1.93 Neuronal nuclei/100 micron field
- Neuronal nuclei/100 micron field ([1]; 320 mg/kg i.p.): 1.78 Neuronal nuclei/100 micron field
- Neuronal nuclei/100 micron field ([1]; 1000 mg/kg i.p.): 1.58 Neuronal nuclei/100 micron field
- Neuronal nuclei/100 micron field ([2]; 50 mg/kg i.p.): 0.73 Neuronal nuclei/100 micron field
- Neuronal nuclei/100 micron field ([2]; 100 mg/kg i.p.): 1.09 Neuronal nuclei/100 micron field
- Neuronal nuclei/100 micron field ([2]; 320 mg/kg i.p.): 0.93 Neuronal nuclei/100 micron field

Compound: CC(C)(C)[N+]([O-])=Cc1ccc(S(=O)(=O)O)cc1S(=O)(=O)O [Compound I]
- maximally tolerated dose of adriamycin in combination ([3]; combination with adriamycin): marked increase in the maximally tolerated dose
- effect on survival ([3]; up to 300 mg/kg i.p., without adriamycin, DBA/2J): no effect on survival
- effect on survival [4]: no effect on survival
- Neuronal nuclei/100 micron field ([1]; 3.2 mg/kg i.p.): 1.43 Neuronal nuclei/100 micron field
- Neuronal nuclei/100 micron field ([1]; 10 mg/kg i.p.): 2.57 Neuronal nuclei/100 micron field
- Neuronal nuclei/100 micron field ([1]; 32 mg/kg i.p.): 3.53 Neuronal nuclei/100 micron field
- Neuronal nuclei/100 micron field ([1]; 50 mg/kg i.p.): 4.11 Neuronal nuclei/100 micron field
- Neuronal nuclei/100 micron field ([1]; 100 mg/kg i.p.): 4.18 Neuronal nuclei/100 micron field
- Neuronal nuclei/100 micron field ([1]; 320 mg/kg i.p.): 4.23 Neuronal nuclei/100 micron field
- Neuronal nuclei/100 micron field ([1]; 1000 mg/kg i.p.): 4.11 Neuronal nuclei/100 micron field
- Neuronal nuclei/100 micron field ([1]; 3200 mg/kg i.p.): 4.18 Neuronal nuclei/100 micron field
- protection against neuronal loss ([1]; high dose levels): complete protection against neuronal loss
- solubility [5]: > 1000 mg/mL
- lethality [6]: no lethality
- protection of CK against the effects of βAP fragments [7]: complete protection
- Infarct Volume ([8]; 1.0 mg/kg/hr i.v.): 16.8 mm^3
- Infarct Volume ([8]; 10 mg/kg/hr i.v.): 12.7 mm^3
- Infarct Volume ([8]; 100 mg/kg/hr i.v.): 8.3 mm^3
- Neuronal nuclei/100 micron field ([2]; 32 mg/kg i.p.): 1.83 Neuronal nuclei/100 micron field
- Neuronal nuclei/100 micron field ([2]; 50 mg/kg i.p.): 2.73 Neuronal nuclei/100 micron field
- Neuronal nuclei/100 micron field ([2]; 100 mg/kg i.p.): 3.41 Neuronal nuclei/100 micron field
- Neuronal nuclei/100 micron field ([2]; 320 mg/kg i.p.): 3.55 Neuronal nuclei/100 micron field
- Neuronal nuclei/100 micron field ([2]; 1000 mg/kg i.p.): 3.68 Neuronal nuclei/100 micron field
- combined toxicity [9]: did not produce any combined toxicity
- protection for neuronal loss (neuronal density) ([10]; 0.5 mg/kg single dose i.v.): 1.25
- protection for neuronal loss (neuronal density) ([10]; 1.0 mg/kg single dose i.v.): 1.75
- protection for neuronal loss (neuronal density) ([10]; 10 mg/kg single dose i.v.): 2.43
- effect on neuronal density in control gerbils ([10]; control gerbils without brain injury): Neither PBN nor Compound I. had an effect on neuronal density
- temperature decrease [11]: no measurable temperature decrease
- errors in 8-arm radial maze ([12]; 1.0 mg/kg/hr for 24 hours): 14.63 errors
- errors in 8-arm radial maze ([12]; 32 mg/kg/hr for 24 hours): 7.19 errors
- errors in 8-arm radial maze ([12]; 50 mg/kg/hr for 24 hours): 4.28 errors
- errors in 8-arm radial maze ([12]; 100 mg/kg/hr for 24 hours): 4.11 errors
- error levels ([12]; high doses): error levels indistinguishable from those of nonischemic animals
- dose demonstrated to be possible [13]: ≥ 1000 mg/kg/h
- protection of GS against the effects of βAP fragments [14]: complete protection
- lethality protection (% survived) ([15]; 10 mg/kg): 50%
- lethality protection (% survived) ([15]; 32 mg/kg): 75%
- lethality protection (% survived) ([15]; 100 mg/kg): 100%
- lethality protection (% survived) ([15]; 320 mg/kg): 100%
- lethality protection ([15]; Compound I: at high levels): complete protection
- protection (infarct volume) [16]: approximately 70%

Compound: COc1cccc2c1C(=O)c1c(O)c3c(c(O)c1C2=O)C[C@@](O)(C(=O)CO)C[C@@H]3O[C@H]1C[C@H](N)[C@H](O)[C@H](C)O1 [adriamycin]
- LD50 [17]: 25 mg/kg
- LD50 [18]: 25 mg/kg

Compound: βAP 1-40: beta amyloid peptide 1-40
- oxidative stress [19]: results in oxidative stress
- cytotoxicity [20]: produces cytotoxicity
- lesions in rat brains [21]: lesions are produced

- inactivation of creatine kinase [23]: dose-related inactivation
- inactivation of glutamine synthetase [24]: dose-related inactivation
Compound: βAP (25-35): proposed breakdown fragment of βAP; naturally occurring 25-35 fragment (GSNKGAIIGLM; Amyloid-beta protein 42; UniProt P05067 696-706, looked up, fragment)
- neurotoxicity [22]: neurotoxic
